Patent US7820833B2, “Dithio compounds” (Marquette University, priority 2005, dated 2010)

Assay: FRET-based detection of thiols with coumarin-DAP-FITC
Conditions: 5 μM probe, Hepes pH 7.0; excitation 300 to 330 nm; no DTT
Description: FIG. 18. FRET-based detection of thiols: (a) R^1—S—S—R^2 probe with FRET capability (coumarin-DAP-FITC); (b) Fluorescence emission of coumarin-DAP-FITC at different excitation wavelengths; (c) Fluorescence emission of coumarin DAP-FITC after treatment with 1 mM DTT reductant (5 min) at different excitation wavelengths.
Hepes (pH 7.0) buffer was used in this study (FIG. 18) and fluorescence readings were made on a BMG Polarstar Galaxy fluorescence plate reader and/or on a Jasco FP-6500 spectrofluorometer. […] The probe (5 μM) was transferred to a 4 mL fluorescence cell and a three dimensional fluorescence spectra was recorded with excitation wavelength from 300 nm to 400 nm and emission wavelength from 400 nm to 600 nm. The coumarin chromophone has maximum excitation wavelength in the range of 310 to 325 nm and emits in the range of 400 nm to 425 nm. […] Analogues of this coumarin-DAP-FITC FRET pair can be used to tune excitation wavelengths in the range of 280 to 400 nm by placing different substitutions on the coumarin core. This includes using commercially available coumarin compounds and also coumarin compounds synthesized with functional groups like NO2, CN, NH2, COOH, CHO, alkyl, benzyl, pyridyl, naphthyl, indoles, etc at any of the synthetically feasible positions on benzyl ring of coumarin or lactone ring of coumarin. […]

fluorescence emission of intact probe: emission is only from FITC at 520 nm
Compound: Cc1cc(=O)oc2cc(SSc3ccc(C(=S)Nc4ccc(C(=O)O)c(-c5c6ccc(=O)cc-6oc6cc(O)ccc56)c4)cc3)ccc12 [coumarin-DAP-FITC, 2-(6-Hydroxy-3-oxo-3H-xanthen-9-yl)-4-[4-(4-methyl-2-oxo-2H-chromen-7-yldisulfanyl)-thiobenzoylamino]-benzoic acid]
